Test results reported in PubChem BioAssay AID1552 (Sanford-Burnham Center for Chemical Genomics, 2009).
Activity calls are given as the source filed them. The rule behind the calls is not given here.

These compounds were tested against Ubiquitin-conjugating enzyme E2 N (Homo sapiens) (UniProt P61088) (assay: UBE2N binders by NMR, biophysical, purified protein (AID 1552)). Details: NMR binding to purified UBE2N.
Ubiquitin-conjugating enzyme E2 N (Homo sapiens), sequence (P61088 whole entry, looked up): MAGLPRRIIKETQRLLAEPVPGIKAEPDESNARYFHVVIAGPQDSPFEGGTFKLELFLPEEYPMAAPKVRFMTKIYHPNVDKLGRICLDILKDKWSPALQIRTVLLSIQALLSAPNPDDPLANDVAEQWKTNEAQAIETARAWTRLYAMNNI
`O=C(Nc1nncs1)Oc1ccccc1` was tested, and the Kd was > 4 mM (inactive).
With `Clc1ccc(-c2nnc3ccccn23)cc1` the Kd was > 4 mM (inactive).
`CCC(C)C(=O)O[C@H]1[C@H](O)C2C(CN3CC(C)CCC3[C@@]2(C)O)C2C[C@]34O[C@]5(O)C(OC(=O)C(C)(O)CC)CC[C@@]3(C)C5C(OC(C)=O)[C@@H](OC(C)=O)C4[C@@]21O` (some centres undefined) was tested, and the Kd was > 4 mM (inactive).
`CS(=O)(=O)CCCCN=C=S` was tested, and the Kd was > 4 mM (inactive).
In the case of `NC1C2CC3CC1CC(O)(C3)C2` (centres undefined), the Kd is reported as > 4 mM (inactive).
In the case of `CC(=O)c1cnc(Nc2nc(C)c3ccccc3n2)nc1C`, the Kd is reported as > 4 mM (inactive).
In the case of `CCCn1c(C)cc(=O)[nH]c1=O`, the Kd is reported as > 4 mM (inactive).
For `O=C(CS(=O)(=O)c1ccccc1)Nc1nccs1`, the Kd was > 4 mM (inactive).
With `NS(=O)(=O)c1ccc(NC(=O)C(F)(F)F)cc1` the Kd was > 4 mM (inactive).
In the case of `Cc1cc2cc(N)ccc2[nH]1`, the Kd is reported as > 4 mM (inactive).
With `CS(=O)(=O)N1CCN(c2ncccn2)CC1` the Kd was > 4 mM (inactive).
In the case of `COc1cc(OC)c(-c2c(OC)cc(OC)cc2OC)c(OC)c1`, the Kd is reported as > 4 mM (inactive).
With `Cc1n[nH]c(=S)n(/N=C/c2cccs2)c1=O` the Kd was > 4 mM (inactive).
`Cc1nn(CC(=O)Nc2ccccn2)c(=O)c2ccccc12` was tested, and the Kd was > 4 mM (inactive).
For `O=C1CNC(=O)N1Cc1ccc(F)cc1`, the Kd was > 4 mM (inactive).
With `CC1(C)CC(NC(=O)/C=C/C(=O)O)CC(C)(C)N1` the Kd was > 4 mM (inactive).
For `O=C(c1ccccc1)N1CCN(c2ccccc2F)CC1`, the Kd was > 4 mM (inactive).
`Cc1c(C(=O)OC(C)C)[nH]c2c1C(=O)CCC2` was tested, and the Kd was > 4 mM (inactive).
For `COc1ccc(-c2coc3cc(O)ccc3c2=O)cc1`, the Kd was > 4 mM (inactive).
`C[C@]12CCC3C(CC[C@]4(O)C[C@@H](O)CC[C@]34C=O)[C@@]1(O)CCC2C1=CC(=O)OC1` (some centres undefined) was tested, and the Kd was > 4 mM (inactive).
In the case of `N[C@@H](CCC(=O)N[C@@H](CS)C(=O)NCC(=O)O)C(=O)O`, the Kd is reported as > 4 mM (inactive).
For `COc1cc2c(cc1OC)[C@@]13CCN4CC5=CCOC6CC(=O)N2C1[C@H]6[C@H]5C[C@H]43` (some centres undefined), the Kd was > 4 mM (inactive).
In the case of `Cn1c(NCC(=O)O)nc2c1c(=O)[nH]c(=O)n2C`, the Kd is reported as > 4 mM (inactive).
For `CC(=O)c1c(C)nn(CC(=O)O)c1C`, the Kd was > 4 mM (inactive).
For `Clc1ncc2[nH]cnc2n1`, the Kd was > 4 mM (inactive).
With `CC(=O)O[C@@H]1CC2C(C)(C)C(=O)C=C[C@]2(C)C2CC[C@@]3(C)[C@H](c4ccoc4)OC(=O)[C@H]4O[C@]43[C@@]21C` (some centres undefined) the Kd was > 4 mM (inactive).
In the case of `CC(=O)C1CC[C@H]2C3CC[C@H]4C[C@H](O)CC[C@]4(C)C3CC[C@]12C` (some centres undefined), the Kd is reported as > 4 mM (inactive).
`Cn1c(SCc2ccon2)nc2ccccc2c1=O` was tested, and the Kd was > 4 mM (inactive).
In the case of `COc1ncnc(N)c1[N+](=O)[O-]`, the Kd is reported as > 4 mM (inactive).
`OCc1cc(F)cc2c1OCOC2` was tested, and the Kd was > 4 mM (inactive).
`Cc1cc(=O)[nH]c(N2CCN(Cc3ccccc3)CC2)n1` was tested, and the Kd was > 4 mM (inactive).
With `O=C(c1ncc[nH]1)c1ccccc1C(=O)N1CCOCC1` the Kd was > 4 mM (inactive).
In the case of `Cc1ccc(Nc2nnns2)cc1C`, the Kd is reported as > 4 mM (inactive).
With `O=C(O)CNC(=O)c1ccccc1` the Kd was > 4 mM (inactive).
`CSc1nnc2c(n1)OC=Nc1ccccc1-2` was tested, and the Kd was > 4 mM (inactive).
`NC(=O)C1CC2C=CC1C2` (centres undefined) was tested, and the Kd was > 4 mM (inactive).
For `CC(C)=CCc1c2c(c3occ(-c4ccc(O)c(O)c4)c(=O)c3c1O)C=CC(C)(C)O2`, the Kd was > 4 mM (inactive).
With `O=C(O)CC1Sc2ccccc2NC1=O` (centres undefined) the Kd was > 4 mM (inactive).
`O=c1ccc(=O)n(CN2CCc3ccccc3C2)[nH]1` was tested, and the Kd was > 4 mM (inactive).
With `c1n[nH]cc1-c1cn[nH]c1` the Kd was > 4 mM (inactive).
`O=C(Nc1ccc(Cl)cn1)c1cnn2cccnc12` was tested, and the Kd was > 4 mM (inactive).
With `COc1ccc2nc(N)sc2c1` the Kd was > 4 mM (inactive).
`CC(=O)Nc1ccc(C(=O)n2nc(C)cc2C)cc1` was tested, and the Kd was > 4 mM (inactive).
With `O=C(O)c1ccc2[nH]c3c(c2c1)CSCC3` the Kd was > 4 mM (inactive).
In the case of `NC(=O)C1CCN(C(=S)c2cccs2)CC1`, the Kd is reported as > 4 mM (inactive).
In the case of `CS/C(N)=C\C(C)=O`, the Kd is reported as > 4 mM (inactive).
`CC(CC(O)C1OC1(C)C)[C@@H]1CCC2(C)C3=CCC4C(C)(C)C(=O)CCC4(C)C3CC[C@@]12C` (some centres undefined) was tested, and the Kd was > 4 mM (inactive).
`O=c1nc(C(F)(F)F)nc2ccccn12` was tested, and the Kd was > 4 mM (inactive).
In the case of `CCn1cnc2cc(NCc3ccncc3)ccc21`, the Kd is reported as > 4 mM (inactive).
With `Cc1cc(NC(=O)CSc2nncn2C)no1` the Kd was > 4 mM (inactive).
With `O=C1CNC(=O)N1c1cccc(Cl)c1` the Kd was > 4 mM (inactive).
In the case of `C[C@]12CCC3C(CC[C@H]4C[C@@H](O)CC[C@]34C)C1CCC2=O` (some centres undefined), the Kd is reported as > 4 mM (inactive).
With `O=C(/C=C/c1ccccc1)c1ccc(O[C@@H]2O[C@H](CO)[C@@H](O)[C@H](O)[C@H]2O)cc1O` the Kd was > 4 mM (inactive).
In the case of `CC1=CC(=O)C2C(C)(C)CCC[C@]2(C)[C@@]1(O)CCc1ccoc1` (some centres undefined), the Kd is reported as > 4 mM (inactive).
For `COC(=O)c1cccc(N)c1`, the Kd was > 4 mM (inactive).
`Cc1cc(C(=O)Nc2ccc3c(c2)OCO3)cs1` was tested, and the Kd was > 4 mM (inactive).
For `CSc1nc2nccc(N)n2n1`, the Kd was > 4 mM (inactive).
For `CC(=O)N1CC2(C)CN(C(C)=O)CC(C)(C1)C2`, the Kd was > 4 mM (inactive).
In the case of `CCCCCCCCCCCC[C@H](C(=O)O)[C@@H](C)C(=O)O`, the Kd is reported as > 4 mM (inactive).
In the case of `CC(=O)O[C@H]1CC[C@]2(C)C3CC[C@@]4(C)C(CC5O[C@@]6(CCC(C)CO6)[C@@H](C)C54)C3CC[C@@H]2C1` (some centres undefined), the Kd is reported as > 4 mM (inactive).
In the case of `CC(=O)NN1C(=O)c2cccc3cccc(c23)C1=O`, the Kd is reported as > 4 mM (inactive).
For `CN(C)CCCN1CNC(=S)NC1`, the Kd was > 4 mM (inactive).
In the case of `CC(C)c1ccc2c(c1)CCC1[C@](C)(CN)CCC[C@]21C` (some centres undefined), the Kd is reported as > 4 mM (inactive).
For `C[N+](C)(C)CC(=O)[O-]`, the Kd was > 4 mM (inactive).
For `COc1ccc2cnn(-c3ccccc3)c(=O)c2c1OC`, the Kd was > 4 mM (inactive).
With `CS(=O)(=O)Nc1cc2c3c(c1)CCN3C(=O)CC2` the Kd was > 4 mM (inactive).
In the case of `O=C(O)CC1C(=O)NCCN1Cc1ccccc1` (centres undefined), the Kd is reported as > 4 mM (inactive).
With `Cc1ccc(-c2c(C)n([O-])c(C)c(C)[n+]2=O)cc1` the Kd was > 4 mM (inactive).
For `CNCc1ccco1`, the Kd was > 4 mM (inactive).
For `CC(=O)Nc1ccccc1-c1ccccc1NC(C)=O`, the Kd was > 4 mM (inactive).
With `NC(=O)N1CCc2ccccc21` the Kd was > 4 mM (inactive).
For `OCc1ccc2c(c1)OCO2`, the Kd was > 4 mM (inactive).
In the case of `Nc1ccc(N2CCCCC2)cc1`, the Kd is reported as > 4 mM (inactive).
`Cc1nn2c(=O)/c(=C/c3cccc(F)c3)sc2nc1=O` was tested, and the Kd was > 4 mM (inactive).
With `Cn1cnc2c1c(=O)[nH]c(=O)n2C` the Kd was > 4 mM (inactive).
`O=C(Nc1ccccc1C(F)(F)F)N1CCCCCC1` was tested, and the Kd was > 4 mM (inactive).
`Cc1nc2ccccc2c2c1C(=O)N(N)C2=O` was tested, and the Kd was > 4 mM (inactive).
`COc1ccc(Cl)cc1NC(=O)c1ccco1` was tested, and the Kd was > 4 mM (inactive).
`O=C(Nc1ccc2c(c1)OCO2)c1cccs1` was tested, and the Kd was > 4 mM (inactive).
For `COc1cc(C2NC(=S)NC(C)=C2C(C)=O)ccc1O` (centres undefined), the Kd was > 4 mM (inactive).
For `CC(=O)Oc1cccc2ccc(=O)[nH]c12`, the Kd was > 4 mM (inactive).
With `O=C1COc2ccccc2C(=O)N1` the Kd was > 4 mM (inactive).
With `CC1(C)O[C@H]2[C@H](O)C[C@](O)(C(N)=O)C[C@H]2O1` the Kd was > 4 mM (inactive).
`Cc1cc(=O)oc2cc(O)c(O)cc12` was tested, and the Kd was > 4 mM (inactive).
For `CC(N)C(=O)c1ccco1` (centres undefined), the Kd was > 4 mM (inactive).
With `O=C(O)CNC(=O)c1ccccc1Cl` the Kd was > 4 mM (inactive).
`Cc1cc(C)n(-c2nc(N)cc(=O)[nH]2)n1` was tested, and the Kd was > 4 mM (inactive).
`Cc1nc2nc(-c3ccco3)nn2c(C)c1Cl` was tested, and the Kd was > 4 mM (inactive).
With `CN(C)C1CCS(=O)(=O)C1` (centres undefined) the Kd was > 4 mM (inactive).
For `CC(C(N)=O)N1C(=O)c2ccccc2C1=O` (centres undefined), the Kd was > 4 mM (inactive).
With `CCOC(=O)C(C)c1n[nH]c(=O)c2ccccc12` (centres undefined) the Kd was > 4 mM (inactive).
For `CCC(CCC(C)[C@H]1CCC2C3CC=C4C[C@@H](O)CC[C@]4(C)C3CC[C@@]21C)C(C)C` (some centres undefined), the Kd was > 4 mM (inactive).
With `C#CCCCCCCCCCCCC(=O)CC(O)COC(C)=O` (centres undefined) the Kd was > 4 mM (inactive).
`COc1ccc(-c2noc(-c3ccco3)n2)cc1OC` was tested, and the Kd was > 4 mM (inactive).
`Cc1ccc(Nc2nc(N)nc(CC#N)n2)cc1` was tested, and the Kd was > 4 mM (inactive).
With `Nc1cc2ccccc2cn1` the Kd was > 4 mM (inactive).
In the case of `Cc1sc2nc(NCCO)[nH]c(=O)c2c1C`, the Kd is reported as > 4 mM (inactive).
With `O=C(NCN1CCOCC1)c1cnccn1` the Kd was > 4 mM (inactive).
In the case of `COCC(=O)N1CCCc2ccccc21`, the Kd is reported as > 4 mM (inactive).
With `Cc1noc(C)c1C(=O)N1CCC(Cc2ccccc2)CC1` the Kd was > 4 mM (inactive).
In the case of `Fc1ccc(F)c(CN2CCN(c3ncccn3)CC2)c1`, the Kd is reported as > 4 mM (inactive).
In the case of `COc1ccc(N2CC(=O)NC2=O)cc1`, the Kd is reported as > 4 mM (inactive).
In the case of `O=C(COc1ccccc1O)NCCO`, the Kd is reported as > 4 mM (inactive).
With `c1ccc(CCNc2ncnc3nc[nH]c23)cc1` the Kd was > 4 mM (inactive).
`COc1cc([C@@H]2c3cc4c(cc3[C@H](OC(C)=O)[C@H]3COC(=O)[C@@H]23)OCO4)cc(OC)c1OC` was tested, and the Kd was > 4 mM (inactive).
`Nc1cc(F)cc(F)c1` was tested, and the Kd was > 4 mM (inactive).
For `CSc1ccc(/C=c2\sc3ncnn3c2=O)cc1`, the Kd was > 4 mM (inactive).
`O=C(c1ccco1)N1CCNCC1` was tested, and the Kd was > 4 mM (inactive).
`O=C(NC(=O)N1CCOCC1)c1ccccc1` was tested, and the Kd was > 4 mM (inactive).
With `Cc1noc(C)c1C(=O)NC1=NCCS1` the Kd was > 4 mM (inactive).
For `NC(=O)CN1CCC(c2nc3ccccc3[nH]2)CC1`, the Kd was > 4 mM (inactive).
For `c1cc2c(cc1[C@H]1OC[C@H]3[C@@H]1CO[C@H]3c1ccc3c(c1)OCO3)OCO2`, the Kd was > 4 mM (inactive).
`COc1ccc(C(C)=O)c(OC)c1` was tested, and the Kd was > 4 mM (inactive).
For `c1ccc2c(c1)nnn2C1CCNCC1`, the Kd was > 4 mM (inactive).
`Cc1cc(N)on1` was tested, and the Kd was > 4 mM (inactive).
For `NCc1csc2ccccc12`, the Kd was > 4 mM (inactive).
In the case of `CC(=O)NC(O)C(=O)c1cccs1` (centres undefined), the Kd is reported as > 4 mM (inactive).
With `Cn1cccc1C(=S)N1CCOCC1` the Kd was > 4 mM (inactive).
For `Cc1ccc(C2NS(=O)(=O)N=C2N)cc1` (centres undefined), the Kd was > 4 mM (inactive).
